As to `CCCN1C(=O)C2(c3ccccc3)CC(c3ccc(N)cc3)(C2)C1=O`, the melting point was 144 to 145 °C. For `O=C(O)CCCCCc1nn(-c2ccc(F)cc2)c2c1CCC2`, the melting point lay within 64 to 67 °C. The compound `COc1ccc2cccc(N)c2c1` showed a melting point of 134 to 136 °C. To `O=C(NCCCl)Nc1ccncc1` belongs 120 to 122 °C; to `CCN(CC)C(=O)n1ccc(Sc2c(C)cccc2Cl)n1`, 57 to 58 °C. `CNC(=O)c1ccc(-c2cnc3[nH]c(=O)n(CC4CCOCC4)c3n2)cc1` came in with a melting point of 328 to 330 °C.

Regarding `CC(C)(C)C(=O)c1c[nH]c2ncc(-c3ccc(S(N)(=O)=O)cc3)nc12`, the melting point lay within 277 to 278 °C.

With `CC(=O)N1CCN(c2c(F)cc3c(=O)c(C(=O)O)cn(C4CC4)c3c2C)CC1C` (stereo unspecified), the melting point was in the range of 219 to 221 °C. To `CN1CCN(Cc2ccc(Cl)nc2)C1=N[N+](=O)[O-]` belongs 165 to 167 °C. In turn, `CCOCC1Cc2cc(S(=O)(=O)N(C)C)c(Cl)c(Cl)c2O1` (stereo unspecified) showed a melting point of 91 to 92 °C. To `NC(=O)Nc1cccc(OCCCCl)c1` belongs 141 to 143 °C; to `COCC1CCCN1S(=O)(=O)c1ccc2c(c1)C1(OCCCO1)C(=O)N2` (stereo unspecified), 127 to 128 °C.

Compound `CCN(CC)CCCNC(=O)Cn1cc(-c2ccccc2)cn1` gave a melting point of 55 to 57 °C.

For `O=C(CNC(=O)c1ccccc1)c1ccccc1`, the melting point was in the range of 114 to 120 °C.

For `CN1CCN(C(=O)[C@H](CC(N)=O)NC(=O)OC(C)(C)C)CC1`, the melting point was 68 to 70 °C.

The compound `CCc1ccc2nc(N)nc(Nc3ccccc3C)c2c1` had a melting point of 263 to 265 °C.

Compound `Clc1ccc(-c2nc(-n3ccnc3)oc2CCC2=NCCO2)cc1` gave a melting point of 120 to 121 °C.

In turn, `N#CNC(=N)NC1CCCc2ccccc21` (stereo unspecified) gave a melting point of 153 to 155 °C.

Compound `O=C1C=C2CCCCC2N1c1ccc(OCCN2CCCCC2)c(Cl)c1` (stereo unspecified) displayed a melting point of 98 °C. To `OC(CCc1ccc(OCc2ccccc2)c(OCc2ccccc2)c1)C1CCCCC1` (stereo unspecified) belongs 107 to 108 °C; to `COc1ccc(-c2nc(SC(F)(F)CF)[nH]c2-c2ccc(OC)cc2)cc1`, 144 to 145 °C. To `O=C1N=NC(=O)N1c1c(F)c(F)c(F)c(F)c1F` belongs 88 to 91 °C. As for `Cn1c(CO)nc2c(N)cc(Br)cc21`, the melting point was 216 to 218 °C. To `COC(=O)C=Cc1ccc(-c2ccc(OC(F)(F)F)cc2)cc1` belongs 98 to 100 °C; to `c1ccc(COc2ccc3[nH]cc(Cc4cccnc4)c3c2)cc1`, 148 °C; to `CC(C)C1OC(=Nc2nccs2)c2c1nc1c(C(F)(F)F)cccc1c2O` (stereo unspecified), 246 to 248 °C. To `C=CCc1cc(OCCOC)ccc1OCC1(O)CN2CCC1CC2` (stereo unspecified) belongs 58 to 60 °C; to `CCCC(=O)OC1CC(n2cc(CC)c(=O)[nH]c2=O)OC1CNC(=O)Cc1c(Cl)cccc1Cl` (stereo unspecified), 130 to 132 °C; to `CC(=O)Nc1cccc(C2=CCNc3c(C#N)cnn32)c1`, 251 to 254 °C. To `Cc1c(Cc2ccc([N+](=O)[O-])cc2)c(=O)oc2cc(OCc3nnn[nH]3)cc(OCc3nnn[nH]3)c12` belongs 240 to 244 °C; to `FC(F)(F)c1cccc(-n2cnnc2Oc2ccccc2)c1`, 83 to 85 °C; to `COc1cccc(CC(=O)O)c1OCCCCc1cn(-c2ccc(C(F)(F)F)cn2)nc1C(C)C`, 144 to 145 °C.

Take `Nc1scc2c1C(=O)c1cc(Cl)c(Cl)cc1-2`: the melting point was 272 °C. To `CC(C)n1nc(-c2c(-c3ccccc3)nn3ccc(OCCCN(C)C)cc23)ccc1=O` belongs 125 to 126 °C; to `O=C(OCC(Cl)(Cl)Cl)c1ccc2c(c1)C(C(Cl)(Cl)Cl)OC(C(Cl)(Cl)Cl)O2` (stereo unspecified), 129 to 130 °C; to `CCSc1ccc(Cl)c(OS(C)(=O)=O)n1`, 40 to 41 °C.

For the compound `O=C1N(C(c2ccccc2)c2ccccc2)c2cc(F)ccc2C12COc1cc3c(cc12)CCO3` (stereo unspecified), the melting point was in the range of 194 to 196 °C. As to `CCOC(=O)c1cc(S(=O)(=O)N2CCN(CC)CC2)cnc1OCC`, the melting point was in the range of 66 to 68 °C. With `CNC(=O)NNC(=S)N1N=C(c2ccc([N+](=O)[O-])cc2)c2cc3c(cc2CC1C)OCO3` (stereo unspecified), the melting point is 200 °C.

Consider `COc1nc(C)c(C(C)=O)cc1NC(=O)N1CCN(c2cccc(C)c2C)CC1`, for which the melting point fell in the range of 173 to 174 °C. To `Cc1c(C(=O)Nc2ccc(N3CCC(N(C)C)CC3)c(C#N)c2)cnn1-c1ccc(Cl)cc1` belongs 210 to 213 °C; to `Cc1oc(-c2ccccc2)nc1COc1cc(CCl)ccn1`, 104 to 105 °C. To `CCCCCCCCCCCCCCCCCCOc1cc(OCCCCCCc2cccc(O)c2O)cc(C(=O)O)c1` belongs 92 to 94 °C; to `Cc1ccc(-c2ccc(Cl)c(C(=O)NCC34CC5CC(CC(C5)C3)C4)c2)c(C(=O)O)c1`, 214 to 216 °C; to `COc1ccc(-c2cccs2)cc1OC1CCCC1`, 67 to 68 °C. The figure for `Cc1cc(C)n(C(=O)c2cn3c(C)csc3n2)n1` is 172 to 176 °C; for `CCC(=O)N1CCNC1=NC#N` it is 208 to 210 °C. `COc1cc(OC(C)(C)C(=O)O)c(/C=C/C(=O)c2ccc(S(N)(=O)=O)cc2)cc1-c1cccs1` yielded a melting point of 164 to 165 °C.

On to `COCCNC(=O)COc1ccn2nc(-c3ccccc3)c(-c3ccc(=O)n(C(C)C)n3)c2c1`, for which the melting point lay within 144 to 146 °C.

With `CCCOCCc1ccc(-c2ccc3c(c2)C=C(C(=O)Nc2ccc(CN(C)C4CCOCC4)cc2)CCS3(=O)=O)c(Cl)c1`, the melting point fell in the range of 150 to 152 °C. The figure for `CCCCC(=O)Nc1ccc(Cl)c(-n2nc(CCCC)n(Cc3ccc(-c4ccccc4S(=O)(=O)NC(=O)OC(C)(C)C)cc3)c2=O)c1` is 177 to 179 °C; for `COc1ccc(Cn2ccc3c(-c4ccco4)ncnc32)cc1` it is 130 to 131 °C; for `CC(C)OC1CCC(=O)N1S(=O)(=O)C=Cc1ccc([N+](=O)[O-])cc1` (stereo unspecified) it is 178 to 179 °C. Compound `Cc1ccc(S(=O)(=O)N2CCc3ccccc3C(Oc3ccccc3)C2)cc1` (stereo unspecified) had a melting point of 155 to 156 °C.

On to `O=C(O)CCC(=NO)c1ccc(-c2ccc(F)cc2)cc1`, for which the melting point was 152 to 153 °C. To `O=C(O)c1ccc(-c2c(-c3ccccc3)[nH]c3ccccc23)cc1` belongs 252 to 253 °C; to `Nc1ccc(S(=O)(=O)c2cc(-c3cccc(C(F)(F)F)c3)nc(N3CCCC3)c2)cc1`, 219 to 220 °C; to `CCCc1nn(C)c2c(=O)[nH]c(-c3cc(-n4ccnc4)ccc3OCC)nc12`, 193 to 194 °C. The figure for `CC[C@H](NC(=O)OC(C)(C)C)C(=O)OCCCCNc1cccc2c1C(=O)c1ccccc1C2=O` is 58 °C; for `O=C1NC(=O)c2ccccc2/C1=C/Nc1ccc(CCN2CCCC2)cc1` it is 224 to 225 °C. To `CC(C)C[C@@H](OC(=O)c1cc(Cl)ccn1)C(=O)O` belongs 120 to 122 °C.

In turn, `CCC1(C)Cc2cc(OCC(=O)O)c(Cl)c(Cl)c2C1=O` (stereo unspecified) gave a melting point of 168 °C. The figure for `Clc1ccc(-c2nc3n(c2Br)CCS3)c(Cl)c1` is 200 to 202 °C; for `C=CS(=O)CCNC(=O)CCS(=O)(=O)CCCl` (stereo unspecified) it is 108 to 109 °C; for `COc1ccc2c(c1)CCC1C2CCC2(C)C(=O)CC(C)C12` (stereo unspecified) it is 127 to 129 °C. Regarding `CCOC(=O)Cc1cccc(C(=O)c2ccccc2)c1N`, the melting point was 77 to 78 °C. The compound `C=CCn1c(=O)c(C(=O)OCC)c(N)c2cccnc21` registered a melting point of 161 to 164 °C. `ClCc1ccc2c(c1)Cc1cccnc1O2` gave a melting point of 172 to 174 °C. To `Cn1cnc2nc(NC(=O)c3ccccc3)nn2c1=S` belongs 273 to 276 °C; to `O=C(COc1cccc(-n2nc(-c3ccc(F)cc3)c3cccnc32)c1)N1CCOCC1`, 141 to 143 °C. `COc1ccc2c(c1)c(CC(=O)OCC(=O)O)c(C)n2C(=O)c1ccc(C(F)(F)F)cc1` had a melting point of 166 to 167 °C.

For the compound `Nc1c(Nc2cccc3cnccc23)c(=O)c1=O`, the melting point worked out at 215 °C. The figure for `CC(=O)NC(NCC(=O)OCc1ccccc1)C(=O)NCc1ccccc1` (stereo unspecified) is 133 to 135 °C.

For the compound `CC(C)C[C@H](NC(=O)c1cccc(Cl)c1)C(=O)N[C@@H](C(C)C)[C@@H](O)c1c(-c2ccccc2)c1=O`, the melting point came to 179 °C. The figure for `OC(CNC1CC1)c1cccc(Br)c1` (stereo unspecified) is 69.5 to 70.4 °C; for `CCCCNS(=O)(=O)CC(O)C(O)C(CC1CCCCC1)NC(=O)c1ccnnc1` (stereo unspecified) it is 170 to 172 °C; for `CCCCCCCCOCCCN=C=O` it is 74 to 76 °C. The figure for `CON=C(c1ccc(OC(C)(C)C(=O)O)cc1)c1cccs1` is 168 °C; for `CC1=NN(CC(C)C)S(=O)(=O)c2sc(S(N)(=O)=O)cc21` it is 140 to 142 °C. The figure for `COc1ccc2nccc(C(O)CCC3CCNCC3)c2c1` (stereo unspecified) is 154 °C; for `Cn1nc(C#N)c(Nc2ccc(Cl)cc2[N+](=O)[O-])n1` it is 166 to 168 °C.

The compound `O=[N+]([O-])c1ccc2c(cnn2Cc2ccccc2[N+](=O)[O-])c1` gave a melting point of 102 to 103 °C. The figure for `Cc1noc(C)c1NCC#CI` is 139 to 140 °C; for `COc1ccc(I)cc1CCCO` it is 68 to 70 °C; for `Cc1cc(N)cc(C)c1Oc1ccc(Cl)c2c1CCCC2` it is 126 to 135 °C.

Turning to `NC(=O)c1cccc(-c2ccc(F)c3cc(Cc4cccc(C(F)(F)F)c4)sc23)c1`, the melting point lay within 139 to 140 °C. In turn, `CCOP(=O)(Cc1nnc2c(=O)[nH]c3ccc(C(F)(F)F)cc3n12)OCC` gave a melting point of 204 to 208 °C. As for `Oc1ccc(SCc2cc(O)c(O)c(O)c2)cc1`, the melting point amounted to 158 °C. The compound `O=c1[nH]c(-c2ccc(F)cc2)c(CCCl)s1` registered a melting point of 138 °C. The figure for `CCn1cccc(C2c3cc(C(=O)OC)ccc3OC(C)(C)C2O)c1=O` (stereo unspecified) is 120 °C. The figure for `CCOC(=O)c1ccc(C#C[Si](C)(C)C)nc1` is 55 °C.

A word on the melting point: it is the temperature, or range, at which the solid turns liquid.
